Data published in patent US9295673B2, “Combination of mTOR inhibitors and P13-kinase inhibitors, and uses thereof” (Intellikine LLC, priority 2011, dated 2016).
Read-outs that look alike come from different tables or passages of the source.

Legend:
PI3K δ = PI3K δ (Homo sapiens, UniProt O00329); test: PI 3-Kinase (human) HTRF assay, PI3K δ
PI3K α = PI3K α (Homo sapiens, UniProt P42336); test: PI 3-Kinase (human) HTRF assay, PI3K α
Procedure: (§1) An exemplary system is PI 3-Kinase (human) HTRF™ Assay from Upstate. […] Briefly, the assay is a time resolved FRET assay that indirectly measures PIP3 product formed by the activity of a PI3-K. The kinase reaction is performed in a microtitre plate (e.g., a 384 well microtitre plate). The total reaction volume is approximately 20 ul per well. In the first step, each well receives 2 ul of test compound in 20% dimethylsulphoxide resulting in a 2% DMSO final concentration. […] The plate is sealed and incubated for 15 minutes at room temperature. […] The plate is sealed and incubated for 1 hour at room temperature. The reaction is stopped by adding 5 ul of Stop Solution per well and then 5 ul of Detection Mix is added per well. The plate is sealed, incubated for 1 hour at room temperature, and then read on an appropriate plate reader. Data is analyzed and IC50s are generated using GraphPad Prism 5.

PI3K β = PI3K β (Homo sapiens, UniProt P42338); test: PI 3-Kinase (human) HTRF assay, PI3K β; settings: read-out: PI3K β IC50; Table 4
PI3K γ = PI3K γ (Homo sapiens, UniProt P48736); test: PI 3-Kinase (human) HTRF assay, PI3K γ
Procedure: as §1

[1] = read-out: PI3K α IC50, in vitro

PI3K δ, sequence (O00329 whole entry): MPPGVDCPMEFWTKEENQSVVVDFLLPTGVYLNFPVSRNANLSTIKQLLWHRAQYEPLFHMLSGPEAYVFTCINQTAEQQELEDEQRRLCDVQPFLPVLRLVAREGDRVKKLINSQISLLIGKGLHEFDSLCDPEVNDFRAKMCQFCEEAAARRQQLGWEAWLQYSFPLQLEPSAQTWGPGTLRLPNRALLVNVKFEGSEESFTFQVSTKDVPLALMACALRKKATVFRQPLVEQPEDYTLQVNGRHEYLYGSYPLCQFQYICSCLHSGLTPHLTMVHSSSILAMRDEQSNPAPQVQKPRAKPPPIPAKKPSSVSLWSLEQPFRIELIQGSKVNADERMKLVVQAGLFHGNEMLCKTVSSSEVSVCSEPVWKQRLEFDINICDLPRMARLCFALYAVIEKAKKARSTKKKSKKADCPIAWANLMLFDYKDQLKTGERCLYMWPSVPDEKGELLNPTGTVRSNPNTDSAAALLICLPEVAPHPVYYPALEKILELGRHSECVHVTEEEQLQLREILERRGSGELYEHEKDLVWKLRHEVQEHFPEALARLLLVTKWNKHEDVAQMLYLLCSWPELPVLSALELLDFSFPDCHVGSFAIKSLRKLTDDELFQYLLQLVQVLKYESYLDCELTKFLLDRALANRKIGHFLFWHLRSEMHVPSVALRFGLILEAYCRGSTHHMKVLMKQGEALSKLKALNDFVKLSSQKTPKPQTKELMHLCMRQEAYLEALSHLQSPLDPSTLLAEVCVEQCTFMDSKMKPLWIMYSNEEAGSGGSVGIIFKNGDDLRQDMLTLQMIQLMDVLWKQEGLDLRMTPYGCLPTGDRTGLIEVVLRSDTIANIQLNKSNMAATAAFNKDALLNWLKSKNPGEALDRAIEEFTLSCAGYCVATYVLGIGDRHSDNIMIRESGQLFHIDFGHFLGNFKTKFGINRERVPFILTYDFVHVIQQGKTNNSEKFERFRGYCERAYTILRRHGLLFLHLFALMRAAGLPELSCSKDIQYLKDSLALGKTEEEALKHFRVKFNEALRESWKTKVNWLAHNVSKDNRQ
PI3K δ, sequence (P27986 whole entry partner): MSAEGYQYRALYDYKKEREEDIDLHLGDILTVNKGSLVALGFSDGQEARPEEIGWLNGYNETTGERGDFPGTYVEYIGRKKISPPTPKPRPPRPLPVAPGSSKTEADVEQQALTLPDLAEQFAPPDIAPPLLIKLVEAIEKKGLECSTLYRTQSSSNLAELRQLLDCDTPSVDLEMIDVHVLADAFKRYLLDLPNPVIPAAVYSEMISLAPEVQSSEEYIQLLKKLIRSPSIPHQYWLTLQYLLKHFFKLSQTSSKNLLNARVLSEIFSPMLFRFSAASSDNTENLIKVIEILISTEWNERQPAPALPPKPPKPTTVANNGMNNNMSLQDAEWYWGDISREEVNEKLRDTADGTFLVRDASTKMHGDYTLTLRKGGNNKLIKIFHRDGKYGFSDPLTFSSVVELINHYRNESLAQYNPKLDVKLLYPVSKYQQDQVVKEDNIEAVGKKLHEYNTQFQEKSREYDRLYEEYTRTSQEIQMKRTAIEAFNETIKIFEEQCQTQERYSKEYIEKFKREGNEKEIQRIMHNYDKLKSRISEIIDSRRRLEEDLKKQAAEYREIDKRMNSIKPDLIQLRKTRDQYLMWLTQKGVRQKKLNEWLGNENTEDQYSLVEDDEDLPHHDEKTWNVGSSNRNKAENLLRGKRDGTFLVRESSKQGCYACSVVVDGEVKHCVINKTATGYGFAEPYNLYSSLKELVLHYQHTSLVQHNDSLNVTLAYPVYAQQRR
PI3K γ, sequence (P48736 whole entry): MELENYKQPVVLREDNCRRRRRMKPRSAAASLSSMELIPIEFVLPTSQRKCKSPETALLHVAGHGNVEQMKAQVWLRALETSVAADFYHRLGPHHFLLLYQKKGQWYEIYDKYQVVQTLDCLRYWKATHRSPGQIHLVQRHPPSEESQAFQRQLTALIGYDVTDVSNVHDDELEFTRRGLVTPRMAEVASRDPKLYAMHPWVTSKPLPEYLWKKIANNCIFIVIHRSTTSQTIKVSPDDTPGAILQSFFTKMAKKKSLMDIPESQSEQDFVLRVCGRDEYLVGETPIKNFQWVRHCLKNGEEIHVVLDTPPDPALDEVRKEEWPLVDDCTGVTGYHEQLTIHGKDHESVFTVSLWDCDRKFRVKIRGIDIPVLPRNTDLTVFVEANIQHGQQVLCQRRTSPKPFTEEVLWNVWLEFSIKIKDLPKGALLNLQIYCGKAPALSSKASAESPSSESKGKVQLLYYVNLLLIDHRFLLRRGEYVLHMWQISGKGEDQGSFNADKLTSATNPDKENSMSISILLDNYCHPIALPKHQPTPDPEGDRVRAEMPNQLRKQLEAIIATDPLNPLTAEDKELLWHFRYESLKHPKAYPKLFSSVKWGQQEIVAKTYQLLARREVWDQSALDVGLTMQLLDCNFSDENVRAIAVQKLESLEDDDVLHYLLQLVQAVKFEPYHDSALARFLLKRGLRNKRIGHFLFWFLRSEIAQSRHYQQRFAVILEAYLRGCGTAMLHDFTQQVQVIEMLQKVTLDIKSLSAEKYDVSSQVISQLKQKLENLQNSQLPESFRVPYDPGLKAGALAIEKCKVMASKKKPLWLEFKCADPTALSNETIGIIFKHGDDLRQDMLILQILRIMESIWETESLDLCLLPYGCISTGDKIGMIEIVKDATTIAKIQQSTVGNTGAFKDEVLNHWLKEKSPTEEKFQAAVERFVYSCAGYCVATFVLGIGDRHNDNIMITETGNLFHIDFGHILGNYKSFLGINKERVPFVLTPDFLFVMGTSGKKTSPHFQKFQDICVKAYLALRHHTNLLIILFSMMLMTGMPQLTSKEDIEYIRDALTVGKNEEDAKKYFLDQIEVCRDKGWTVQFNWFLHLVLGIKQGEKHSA
PI3K α, sequence (P42336 whole entry): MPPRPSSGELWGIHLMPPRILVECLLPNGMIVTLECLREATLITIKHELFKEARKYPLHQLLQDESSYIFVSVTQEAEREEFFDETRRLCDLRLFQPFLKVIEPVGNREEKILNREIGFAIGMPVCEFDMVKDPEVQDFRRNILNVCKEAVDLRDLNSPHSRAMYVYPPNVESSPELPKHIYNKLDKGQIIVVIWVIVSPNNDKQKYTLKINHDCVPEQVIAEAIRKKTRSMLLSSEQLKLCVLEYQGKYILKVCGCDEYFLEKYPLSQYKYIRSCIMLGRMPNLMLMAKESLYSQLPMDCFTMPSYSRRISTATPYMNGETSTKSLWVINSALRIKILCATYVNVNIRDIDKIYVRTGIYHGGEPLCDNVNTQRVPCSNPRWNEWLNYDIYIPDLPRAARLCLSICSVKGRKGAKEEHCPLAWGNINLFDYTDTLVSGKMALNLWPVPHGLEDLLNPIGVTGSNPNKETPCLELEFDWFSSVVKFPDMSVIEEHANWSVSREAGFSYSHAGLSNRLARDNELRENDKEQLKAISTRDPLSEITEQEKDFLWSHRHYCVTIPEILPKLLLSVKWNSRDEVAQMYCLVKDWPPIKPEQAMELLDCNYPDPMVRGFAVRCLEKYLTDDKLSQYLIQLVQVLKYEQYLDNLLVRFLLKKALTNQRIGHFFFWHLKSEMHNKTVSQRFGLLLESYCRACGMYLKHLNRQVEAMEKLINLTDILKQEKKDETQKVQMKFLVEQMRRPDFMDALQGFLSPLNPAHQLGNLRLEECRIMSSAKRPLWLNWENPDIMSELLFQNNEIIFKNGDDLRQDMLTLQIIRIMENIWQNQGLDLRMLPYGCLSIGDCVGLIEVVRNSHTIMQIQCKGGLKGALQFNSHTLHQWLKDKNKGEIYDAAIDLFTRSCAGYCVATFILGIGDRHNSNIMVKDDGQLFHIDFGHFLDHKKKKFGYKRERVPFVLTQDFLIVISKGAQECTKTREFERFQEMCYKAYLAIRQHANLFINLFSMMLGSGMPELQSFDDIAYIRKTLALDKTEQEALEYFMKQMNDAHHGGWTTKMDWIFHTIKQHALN
PI3K α, sequence (P27986 whole entry partner): as the sequence (P27986 whole entry partner) above
PI3K β, sequence (P42338 whole entry): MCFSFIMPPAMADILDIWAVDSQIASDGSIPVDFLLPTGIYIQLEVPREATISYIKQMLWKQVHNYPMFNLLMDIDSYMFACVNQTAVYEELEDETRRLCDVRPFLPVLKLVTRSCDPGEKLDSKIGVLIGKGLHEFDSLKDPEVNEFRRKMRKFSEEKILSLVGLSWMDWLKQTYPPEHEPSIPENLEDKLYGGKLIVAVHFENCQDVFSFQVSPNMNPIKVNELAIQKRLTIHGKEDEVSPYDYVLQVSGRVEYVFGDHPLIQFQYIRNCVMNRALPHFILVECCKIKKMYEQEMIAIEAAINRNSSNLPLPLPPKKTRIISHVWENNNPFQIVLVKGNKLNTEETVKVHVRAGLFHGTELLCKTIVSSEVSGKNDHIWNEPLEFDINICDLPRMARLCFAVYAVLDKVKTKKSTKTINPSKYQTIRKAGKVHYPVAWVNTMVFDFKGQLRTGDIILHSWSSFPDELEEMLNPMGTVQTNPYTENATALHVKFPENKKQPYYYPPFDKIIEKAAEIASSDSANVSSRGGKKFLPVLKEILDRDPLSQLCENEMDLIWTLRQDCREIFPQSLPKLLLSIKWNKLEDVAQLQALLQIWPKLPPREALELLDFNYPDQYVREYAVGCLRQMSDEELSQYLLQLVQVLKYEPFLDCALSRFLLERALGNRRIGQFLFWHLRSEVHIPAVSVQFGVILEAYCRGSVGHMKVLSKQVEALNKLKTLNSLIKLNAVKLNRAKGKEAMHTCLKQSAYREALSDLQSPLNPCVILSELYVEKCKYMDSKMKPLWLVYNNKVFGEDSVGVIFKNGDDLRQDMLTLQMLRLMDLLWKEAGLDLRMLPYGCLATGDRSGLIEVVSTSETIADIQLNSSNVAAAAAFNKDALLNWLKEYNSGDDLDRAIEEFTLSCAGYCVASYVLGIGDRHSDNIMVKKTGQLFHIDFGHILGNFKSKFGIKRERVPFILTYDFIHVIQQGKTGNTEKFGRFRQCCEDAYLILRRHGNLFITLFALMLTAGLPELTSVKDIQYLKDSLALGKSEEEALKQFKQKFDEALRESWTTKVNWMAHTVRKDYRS
PI3K β, sequence (P27986 whole entry partner): as the sequence (P27986 whole entry partner) above

SMILES | IC50 (PI3K β) [µM] | IC50 (PI3K δ; read-out: PI3K δ IC50, Table 4) [µM] | other results
Cc1ncc(-c2ccc3ncc(C(=O)N4CCOCC4)n3c2)c2cn[nH]c12 [Compound 530] | – | – | IC50 (PI3K δ; read-out: PI3K δ IC50, in vitro): < 10 µM
CN1CCN(c2ccc3ncc(-c4ccc5oc(N)nc5c4)cc3n2)CC1 [Compound 631] | < 10 | – | IC50 (PI3K α; read-out: PI3K α IC50, Table 4): < 10 µM
C[C@@H]1CN(c2cnc3ccc(-c4ccc5oc(N)nc5c4)nc3n2)CCN1 [Compound 578] | – | < 10 | –
Nc1nc2cc(-c3ccc4ncc(N5CC(N6CCN(C7CC7)CC6)C5)nc4n3)ccc2o1 [Compound 620] | < 10 | – | IC50 (PI3K γ; read-out: PI3K γ IC50, Table 4): < 10 µM; IC50 (PI3K δ; read-out: PI3K δ IC50): < 10 µM
CCN1CCN(C2CN(c3cnc4ccc(-c5ccc6oc(N)nc6c5)nc4n3)C2)CC1 [Compound 627] | < 10 | < 10 | IC50 (PI3K γ; read-out: PI3K γ IC50, Table 4): < 10 µM
CC(C)N1CCN(C2CN(c3cnc4ccc(-c5ccc6oc(N)nc6c5)nc4n3)C2)CC1 [Compound 628] | – | – | IC50 (PI3K α; read-out: PI3K α IC50, Table 4): < 10 µM
CN1CCN(c2cnc3ccc(-c4ccc5oc(N)nc5c4)nc3c2)CC1 [Compound 575] | – | < 10 | –
Nc1nc2cc(-c3ccc4ncc(N5CC(N6CCOCC6)C5)nc4n3)ccc2o1 [Compound 556] | – | – | IC50 (PI3K γ; read-out: PI3K γ IC50, Table 4): < 10 µM; IC50 (PI3K δ; read-out: PI3K δ IC50): < 10 µM
C[C@H]1CN(c2cnc3ccc(-c4ccc5oc(N)nc5c4)nc3n2)CCN1 [Compound 552] | – | < 10 | IC50 (PI3K γ; read-out: PI3K γ IC50, Table 4): < 10 µM
C[C@@H]1CN(C2CN(c3cnc4ccc(-c5ccc6oc(N)nc6c5)nc4n3)C2)CCN1C [Compound 576] | – | < 10 | IC50 (PI3K γ; read-out: PI3K γ IC50, Table 4): < 10 µM
CCOC(=O)N1CCN(c2cnc3ccc(-c4ccc5oc(N)nc5c4)nc3c2)CC1 [Compound 587] | < 10 | – | –
Nc1nc2cc(-c3ccc4ncc(N5CC(N6CCN(CC7CC7)CC6)C5)cc4n3)ccc2o1 [Compound 611] | < 10 | – | IC50 (PI3K γ; read-out: PI3K γ IC50, Table 4): < 10 µM
CS(=O)(=O)N1CCN(C2CN(c3cnc4ccc(-c5ccc6oc(N)nc6c5)nc4n3)C2)CC1 [Compound 559] | – | < 10 | –
Nc1nc2cc(-c3ccc4ncc(N5CC(N6CC[C@H](O)C6)C5)nc4c3)ccc2o1 [Compound 322] | – | – | IC50 (PI3K δ; read-out: PI3K δ IC50): < 10 µM
Nc1nc2cc(-c3ccc4ncc(C(=O)N5CC[C@H](O)C5)n4c3)ccc2o1 [Compound 264] | – | – | IC50 (PI3K δ; read-out: PI3K δ IC50): < 10 µM
CCOC(=O)N1CC=C(c2cnc3ccc(-c4ccc5oc(N)nc5c4)nc3n2)CC1 [Compound 560] | < 10 | < 10 | –
CN1CCN(C2CN(c3cnc4ccc(-c5ccc6oc(N)nc6c5)nc4n3)C2)CC1 [Compound 622] | < 10 | – | –
CC(N)C(=O)N1CCN(c2cnc3ccc(-c4ccc5oc(N)nc5c4)cc3n2)CC1 (centres unmarked) [Compound 134] | – | – | IC50 (PI3K γ; read-out: PI3K γ IC50): < 10 µM
Nc1nc2cc(-c3ccc4ncc(N5CC(N6CCN(CC7CC7)CC6)C5)nc4n3)ccc2o1 [Compound 586] | < 10 | < 10 | IC50 (PI3K γ; read-out: PI3K γ IC50, Table 4): < 10 µM
CN1CCN(C2CN(c3cnc4ccc(-c5ccc6oc(N)nc6c5)nc4c3)C2)CC1=O [Compound 615] | < 10 | – | –
CC(C)(N)C(=O)N1CCN(c2ccc3ncc(-c4ccc5oc(N)nc5c4)cc3n2)CC1 [Compound 633] | – | – | IC50 (PI3K α; read-out: PI3K α IC50, Table 4): < 10 µM

SMILES | IC50 (PI3K β) [µM] | IC50 (PI3K δ; read-out: PI3K δ IC50, Table 4) [µM] | other results
Nc1nc2cc(-c3ccc4ncc(-c5cccnc5)nc4n3)ccc2o1 [Compound 554] | < 10 | – | –
C[C@H]1COCCN1c1cnc2ccc(-c3ccc4oc(N)nc4c3)nc2n1 [Compound 566] | < 10 | – | –
C[C@H]1CN(C2CN(c3cnc4ccc(-c5ccc6oc(N)nc6c5)nc4n3)C2)CCN1 [Compound 561] | – | < 10 | IC50 (PI3K γ; read-out: PI3K γ IC50, Table 4): < 10 µM
O=C(c1cnc2ccc(-c3cnc4cc[nH]c4c3)cn12)N1CCOCC1 [Compound 534] | – | – | IC50 (PI3K α; [1]): < 10 µM
C[C@H]1CN(c2cnc3ccc(-c4ccc5oc(N)nc5c4)cc3n2)CCN1 [Compound 396] | – | – | IC50 (PI3K γ): < 10 µM; IC50 (PI3K δ): > 10 µM
Nc1nc2cc(-c3ccc4ncc(C5=CCOCC5)nc4n3)ccc2o1 [Compound 562] | < 10 | – | –
COC(=O)Nc1noc2ccc(-c3nn(C(C)C)c4ncnc(N)c34)cc12 [Compound 20] | – | – | IC50 (PI3K α): < 10 µM; IC50 (PI3K δ): < 10 µM
CN1CCC(Oc2ncnc3ccc(-c4ccc5oc(N)nc5c4)cc23)CC1 [Compound 34] | – | – | IC50 (PI3K γ; read-out: PI3K γ IC50): < 0.1 µM
C[C@H]1CN(c2cnc3ccc(-c4ccc5oc(N)nc5c4)nc3c2)CCN1 [Compound 598] | – | – | IC50 (PI3K δ; read-out: PI3K δ IC50): < 10 µM
Nc1nc2cc(-c3ccc4ncc(N5CC(N6CCOCC6)C5)cc4n3)ccc2o1 [Compound 604] | < 10 | – | IC50 (PI3K δ; read-out: PI3K δ IC50): < 10 µM
Nc1nc2cc(-c3ccc4ncc(-c5cccnc5)cc4n3)ccc2o1 [Compound 567] | < 10 | < 10 | –
CC1(C)CN(C2CN(c3cnc4ccc(-c5ccc6oc(N)nc6c5)nc4n3)C2)CCN1 [Compound 603] | < 10 | – | –
Cc1ncc(-c2ccc3ncc(C(=O)N4CCOCC4)n3c2)c2cc[nH]c12 [Compound 536] | – | – | IC50 (PI3K α; [1]): < 10 µM
Nc1nc2cc(-c3ccc4ncc(N5CCC(O)CC5)nc4n3)ccc2o1 [Compound 596] | < 10 | – | –
Nc1nc2cc(-c3ccc4ncc(C(=O)N5CCOCC5)n4c3)ccc2o1 [Compound 54] | – | – | IC50 (PI3K α; read-out: PI3K α IC50): < 0.1 µM
Nc1nc2cc(-c3ccc4ncc(C(=O)N5CC[C@@H](O)C5)n4c3)ccc2o1 [Compound 265] | – | – | IC50 (PI3K δ; read-out: PI3K δ IC50): < 10 µM
Nc1nc2cc(-c3ccc4ncc(N5CC(N6CCN(C7CC7)CC6)C5)cc4n3)ccc2o1 [Compound 621] | < 10 | < 10 | –
CN1CCN([C@H]2CCN(c3cnc4ccc(-c5ccc6oc(N)nc6c5)cc4n3)C2)CC1 [Compound 381] | – | – | IC50 (PI3K δ; read-out: PI3K δ IC50): < 10 µM
C[C@@H]1CN(C2CN(c3cnc4ccc(-c5ccc6oc(N)nc6c5)nc4n3)C2)CCN1 [Compound 563] | – | < 10 | –
C[C@H]1CN(C2CN(c3cnc4ccc(-c5ccc6oc(N)nc6c5)nc4n3)C2)CCN1C [Compound 572] | – | < 10 | –
C[C@H]1COCCN1C1CN(c2cnc3ccc(-c4ccc5oc(N)nc5c4)nc3n2)C1 [Compound 612] | – | < 10 | IC50 (PI3K γ; read-out: PI3K γ IC50, Table 4): < 10 µM

SMILES | IC50 (PI3K β) [µM] | IC50 (PI3K δ; read-out: PI3K δ IC50, Table 4) [µM] | other results
C[C@@H]1COCCN1C1CN(c2cnc3ccc(-c4ccc5oc(N)nc5c4)nc3c2)C1 [Compound 617] | < 10 | – | –
Cc1nccn1C1CN(c2cnc3ccc(-c4ccc5oc(N)nc5c4)nc3c2)C1 [Compound 614] | < 10 | – | –
CC(C)N1CCN(c2cnc3ccc(-c4ccc5oc(N)nc5c4)nc3n2)CC1 [Compound 583] | – | < 10 | –
C[C@H]1COCCN1C1CN(c2cnc3ccc(-c4ccc5oc(N)nc5c4)nc3c2)C1 [Compound 619] | – | – | IC50 (PI3K γ; read-out: PI3K γ IC50, Table 4): < 10 µM
Cc1nccn1C1CN(c2cnc3ccc(-c4ccc5oc(N)nc5c4)nc3n2)C1 [Compound 601] | < 10 | < 10 | IC50 (PI3K γ; read-out: PI3K γ IC50, Table 4): < 10 µM
Nc1nc2cc(-c3ccc4ncc(N5CC(N6CCN(CCO)CC6)C5)nc4n3)ccc2o1 [Compound 597] | < 10 | < 10 | IC50 (PI3K γ; read-out: PI3K γ IC50, Table 4): < 10 µM
C[C@@H]1COCCN1c1cnc2ccc(-c3ccc4oc(N)nc4c3)nc2n1 [Compound 565] | < 10 | < 10 | –
NCC(=O)N1CCN(c2cnc3ccc(-c4ccc5oc(N)nc5c4)nc3n2)CC1 [Compound 584] | < 10 | < 10 | –
Nc1nc2cc(-c3ccc4ncc(N5CCC(O)CC5)cc4n3)ccc2o1 [Compound 613] | < 10 | < 10 | –
C[C@H]1CN(C2CN(c3cnc4ccc(-c5ccc6oc(N)nc6c5)nc4c3)C2)CCN1 [Compound 605] | < 10 | – | IC50 (PI3K γ; read-out: PI3K γ IC50, Table 4): < 10 µM
CN1CCN(c2cnc3ccc(-c4ccc5oc(N)nc5c4)nc3n2)CC1 [Compound 555] | – | – | IC50 (PI3K γ; read-out: PI3K γ IC50, Table 4): < 10 µM; IC50 (PI3K δ; read-out: PI3K δ IC50): < 10 µM
CC(C)(N)C(=O)N1CCN(c2cnc3ccc(-c4ccc5oc(N)nc5c4)nc3n2)CC1 [Compound 591] | < 10 | – | IC50 (PI3K γ; read-out: PI3K γ IC50, Table 4): < 10 µM; IC50 (PI3K δ; read-out: PI3K δ IC50): < 10 µM
NC(=O)[C@H]1CCCN1C(=O)c1cnc2ccc(-c3ccc4oc(N)nc4c3)cn12 [Compound 260] | – | – | IC50 (PI3K γ; read-out: PI3K γ IC50): < 10 µM
C[C@@H](N)C(=O)N1CCN(c2cnc3ccc(-c4ccc5oc(N)nc5c4)nc3n2)CC1 [Compound 582] | < 10 | – | IC50 (PI3K δ; read-out: PI3K δ IC50): < 10 µM
CC1(C)CN(C2CN(c3cnc4ccc(-c5ccc6oc(N)nc6c5)nc4c3)C2)CCN1 [Compound 609] | < 10 | – | –
CCN(CC)c1cnc2ccc(-c3ccc4oc(N)nc4c3)nc2n1 [Compound 577] | – | < 10 | –
CCN1CCN(C2CN(c3cnc4ccc(-c5ccc6oc(N)nc6c5)nc4c3)C2)CC1 [Compound 626] | – | – | IC50 (PI3K γ; read-out: PI3K γ IC50, Table 4): < 10 µM
C[C@@H]1CN(c2cnc3ccc(-c4ccc5oc(N)nc5c4)cc3n2)CCN1 [Compound 179] | – | – | IC50 (PI3K δ; read-out: PI3K δ IC50): < 10 µM
Nc1nc2cc(-c3ccc4ncc(N5CC(N6CCN(CCO)CC6)C5)cc4n3)ccc2o1 [Compound 616] | < 10 | – | –
